From US8236340B2, “Drug formulations for coating medical devices” (REVA Medical, Inc., priority 2003, dated 2012)

Tests used:
[1] = Solubility/dispersibility of drug in the three formulation approaches; format: physicochemical; details: all three formulation approaches; all components first dissolved in a volatile solvent such as ethanol
Description: In all cases the drug was coated onto a balloon from an ethanol solution containing C6-ceramide and the other solvents in each formulation. Once the ethanol evaporated from the surface of the device, the drug was uniformly dispersed over the surface and dissolved within the non-volatile solvent(s). The ethanol was useful in that it decreased the viscosity of the oil/drug mixture thereby promoting uniform coating.

[2] = Physical stability of drug coated on balloon from dimethylsulfoxide/ethanol solution; format: physicochemical
Description: Initially, the deposited lipid form a translucent film, but within an hour or so the deposited material slowly transforms to a white crystallite appearance. The deposition uniformity as measured by microscopy is spotty across the balloon surface. After several days, the white powder continues to transform until it flakes off the balloon and is no longer believed to be in an available state. Decreased availability may be described as the dissolution/deaggregation time of the solid relative to deposition and diffusion within the artery, which prevents it from exerting its effect. Currently, to study the effect of C6-ceramide in animal models, the DMSO/ethanol formulation containing C6-ceramide is coated onto the balloon just prior to insertion into the artery. The role of the solvent is to keep the lipid material in an available film-like state sufficient for it to be rapidly deposited and absorbed quickly in the artery, where it is shown to exert an effect within 15 minutes. However, organic solvents, in which the drug is very soluble, tend to evaporate rapidly and the solvents may also penetrate and affect the balloon performance. Alternative solvents and formulations are needed that permit the drug to remain in a dissolved state yet remain physically stable without changing with time.

[3] = tested on: smooth muscle cell (SMC) proliferation; details: cited from earlier work

## CCCCCCCCCCCCC/C=C/[C@@H](O)[C@H](CO)NC(=O)CCCCC [C6-ceramide]
[1]
  solubility/dispersibility in formulation approaches: sufficiently soluble and/dispersible
[2]
  physical form of deposited drug over time: physical form of the drug changes with time
[3]; after application of a single dose from an angioplasty balloon
  time to initiate activity: ≤ 15 min
[3]; in vitro cell culture and in vivo (rabbit carotid model and pig coronary)
  SMC proliferation: inhibit SMC proliferation
